Laboratory results reported in article PMC6941404, “Pigmentosins from Gibellula sp. as antibiofilm agents and a new glycosylated asperfuran from Cordyceps javanica” (Beilstein Journal of Organic Chemistry, 2019).
Converted amounts (≈) assume the structure as drawn. Where two headings read alike, the source gives them in different places.

What was measured:
Bacillus subtilis DSM10 = assay: Antimicrobial activity, broth microdilution MIC; format: cell-based; settings: for MIC: read-out: Antimicrobial activity (MIC) BS
Method: (§1) To evaluate the biological effects of compounds 1–6, various assays were carried out. The antimicrobial activity of the isolated compounds against Bacillus subtilis DSM10, Escherichia coli DSM498, Candida tenuis MUCL29892, and Mucor plumbeus MUCL49355 was determined as described by Kuephadungphan and co-workers. The nematicidal activity against Caenorhabditis elegans was investigated using a microtiter plate assay according to Helaly and co-workers, while the cytotoxicity was tested against murine fibroblast (L929) and human HeLa (KB3.1) cell lines according to Chepkirui and co-workers.
Biological activity screening of compounds 1–6
Antimicrobial activity assay
The minimum inhibitory concentration (MIC) of compounds 1–6 was determined using the broth microdilution method according to Kuephadungphan et al.4 against B. subtilis DSM10, E. coli DSM498, C. tenuis MUCL29892 and M. plumbeus MUCL49355. Stock suspension of each bacterium and yeast (100 μL) was transferred to 100 mL of EBS medium and YM medium, respectively.
Suspensions of B. subtilis and C. tenuis were incubated on a rotary shaker at 30 °C for 18–24 h while E. coli was grown at 37 °C for 24 h. After incubation, the suspension was adjusted to a concentration of 6.7 × 10^5 cells/mL using a hemacytometer. The spore suspension of M. plumbeus was prepared at a concentration of 6.7 × 10^5 conidia/mL using YM medium. The determination of MIC was performed in a 96-well microtiter plate. The compounds dissolved in methanol at a concentration of 4.5 mg/mL (20 μL) were transferred to the first row of the plate. Standard antibiotics including ciprofloxacin (bacteria) and nystatin (yeast and fungus), and methanol were used as positive and negative controls, respectively. Inoculum suspension (280 μL) was added to the first row containing compounds and 150 μL were added to the rest. The solutions were then serially 2-fold diluted to 8 concentrations ranging from 2.34–300 μg/mL. Plates were incubated at 30 °C on a microplate-vibrating shaker for 24 h for bacteria and 48 h for yeast and filamentous fungus. […]
(§2) The assay was kindly conducted by Wera Collisi, Department of Microbial Drugs, Helmholtz Centre of Infection Research, Germany. The tested cell lines were cultured in EBM -2 (Lonza) sup plemented with 10% fetal bovine serum (Gibco) under 10% CO2 at 37 °C. A 60 µL of serial dilutions from an initial stock (1 mg/mL) of the test compounds in MeOH was added to 120 µL aliquots of a cell suspension (50,000 cells/mL) in 96-well microplates.
After incubation for five days, 20 µL of MTT in phosphate buffered saline (PBS) were added to give a final concentration of 0.5 mg/mL. The plates were further incubated for two hours. The precipitate

Cytotoxicity assay (MTT) = format: cell-based; settings: human; HeLa cell line KB3.1; MTT, five days; NA = No activity; a = Proliferation inhibition, no altered or dead cells
Method: as §1
Biological activity screening of compounds 1–6 […]
as §2, with “The isolated compounds were tested for cytotoxic activity using the MTT (3 -(4,5-dimethylthiayol -2-yl)-2,5-diphenyltetrayolium bromide) method in 96 -well microtiter plates following the procedure previously described by Chepkirui et al.7 against th e cervix carcino ma cell line KB3.1 and the established mouse fibroblast cell line L929. The assay” for “The assay”
After incubation for five days, 20 µL of MTT in phosphate buffered saline (PBS) were added to give a final concentration of 0.5 mg/mL. The plates were further incubated for two hours. The precipitate […]
of formazan crystals was centrifuged and the supernatant was then discarded. Each well was washed with 100 µL of PBS and 100 µL of isopropanol containing 0.4% hydrochloric acid were subsequently added in order to get the residual dissolved. The plates were gently shaken for 20 min before the absorbance at 590 nm was measured using an ELISA microplate reader (Victor). The concentration, at which the growth of cells was inhibited to 50% of the control (IC50), was obtained from the dose - response curves. Methanol was used as negative control while epothilone A and B wer e used as positive controls for L929 and KB3.1 cell lines, respectively. […]
After incubation at 37 °C under shaking condition, the overnight cultures were adjusted to equal the turbidity of 0.5 McFarland standard using the assay medium. The assay was carried out in 96 -well tissue cultured -treated microplates (TPP®, Germany) for S. aureus and non-treated plates (Falcon®MicroTestTM, USA) for P. aeruginosa , in which 10 μ L of each compound (0.5 mg/m L) in six replicates were mixed together with 140 μ L of bacterial suspension. Methanol and CASO medium with and without 4% glucose were used as negative controls and tetracycline (100 μg/m L) as positive control. Plates were covered with a sterile adhesive porous paper (Kisker Biotech GmbH, Steinfurt, Germany) and incubated at 37 °C for 24 h.
After incubation, ba cterial biofilms were stained with 0.1% crystal violet solution (Sigma -Aldrich) following the protocol of O’Toole .9 Then, the biofilm was subsequently quantified using a microplate reader at 550 nm. […]
aeruginosa PA14 were further evaluated for their bacteriostatic and bactericidal activit ies. The assay was performed in the Bioscreen 100 -well Honeycomb plate according to the protocol described by Yuyama et al. 13 where the MIC values were determined. […]

B. subtilis = system: B. subtilis; parameters: method as in PMID 22889083; settings: reported by Grove and co-workers; cited from earlier work
[1] = Bacillus subtilis DSM10, 24 h, range 2.34–300 μg/mL, NA = No activity

COc1cc(O)c2c(O)c3c(cc2c1-c1c(OC)cc(O)c2c(O)c4c(cc12)CC(C)OC4=O)CC(C)OC3=O (stereo not drawn) [Pigmentosin A (1), pigmentosin A]
Antimicrobial activity (MIC) BS (Bacillus subtilis DSM10; [1]): 12.5 µg/mL
MIC (Bacillus subtilis DSM10; Bacillus subtilis, DSM10, 24 h): 12.5 µg/mL (≈ 22.9 µM)
IC50 (Cytotoxicity assay (MTT)): 17 µg/mL (≈ 31.1 µM)
MIC against B. subtilis (B. subtilis): 20 µg/mL (≈ 36.6 µM)

COc1cc(O)c2c(O)c3c(cc2c1-c1c(OC)cc(O)c2c(O)c4c(cc12)CC(CC(C)O)OC4=O)CC(C)OC3=O (stereo not drawn) [Pigmentosin B (2), pigmentosin B]
Antimicrobial activity (MIC) BS (Bacillus subtilis DSM10; [1]): 100 µg/mL
MIC (Bacillus subtilis DSM10; [1]): 100 µg/mL (≈ 169 µM)
